Data from patent US20250199015A1, “CYCLIN-DEPENDENT KINASE 2 INHIBITORS FOR MEDICAL TREATMENT” (INCYCLIX BIO, LLC, priority 2022, published 2025).
Values joined by “and” are separate entries in the source; they are usually repeats but may differ in a detail not shown here. Identical values can stand only once. Counter-ions that a name gives are not always drawn. Marks after values point to notes of the source that are not given here.

Assays:
[1] = tested on: caspase 3/7 in H526 cells; assay: CaspaseGlo-3/7 activation; assay type: cell-based, human
Method: Plates were removed from incubator and treated with CaspaseGlo-3/7 (Promega, Inc) following manufacturer specifications. Plates were then read on a Biotech luminometer with 1 sec/well integration. Results were converted to Microsoft Excel and transferred to GraphPad Prism for Analysis (FIG. 22D).
Plates were removed from the incubator at each specified timepoint and treated with CaspaseGlo-3/7 (Promega, Inc) following manufacturer specifications. Plates were then read on Biotech luminometer with 1 sec/well integration. Results were converted to Microsoft Excel and transferred to GraphPad Prism for Analysis (FIG. 27A-C).

[2] = tested on: caspase 3/7 in Hs68 cells; assay: CaspaseGlo-3/7 in normal fibroblasts; assay type: cell-based; conditions: 300 pM to 10 μM; 24, 48 or 72 hours
Method: The Hs68 Normal foreskin fibroblast cell line was grown in DMEM-high glucose/1× Glutamax/10% fetal bovine serum and was plated at 1,000 cells/well in Corning 96 well white wall/clear bottom tissue culture treated plates. […] Plates were removed from incubator at each specified timepoint and treated with CaspaseGlo-3/7 (Promega, Inc) following manufacturer specifications. Plates were then read on Biotech luminometer with 1 sec/well integration. Results were converted to Microsoft Excel and transferred to GraphPad Prism for Analysis (FIG. 5A-C).

[3] = Thermodynamic solubility in pH 1, 4.5 and 6.8 buffers; assay type: physicochemical
Method: The thermodynamic solubility of HCl Pattern 1 was determined in duplicate according to the following procedure. HCl Pattern 1 (20 mg) was weighed into 6×2 mL glass vials. Then, 1000 μL of pH 1 hydrochloride, pH 4.5 acetate and pH 6.8 phosphate buffers were added to individual vials in 100 μL aliquots to give white slurries at each pH value. […] The pH was re-recorded and adjusted where necessary. The samples were isolated by centrifuge filtration. […] The concentrations of the saturated solutions were determined by HPLC.
Buffer systems were added in 250 μL aliquots up to a total volume of 1 mL. The pH of each slurry was recorded and adjustments were made to the pH 1 system. No initial adjustment was made to the pH 4.5 or 6.8 system. An aliquot of the slurry was analyzed by XRPD. […] The pH was checked and adjusted where required. The slurries were filtered by centrifugation. The solids were isolated and analyzed by XRPD. The solutions were analyzed by HPLC to determine concentration.

[4] = Solvate formation or form change in ethanol (thermal cycling); assay type: physicochemical; conditions: three days, 40° C./5° C.
Method: HCl Pattern 1 was stirred in ethanol to assess any solvation or form change in the solvent system. The following procedure was carried out. HCl Pattern 1 (20 mg) was suspended in 1 mL of ethanol. The suspension was thermally cycled for three days according to the following cycle: • Heat to 40° C. at a rate of 0.1° C./min; • Hold at 40° C. for one hour; • Cool to 5° C. at a rate of 0.1° C./min; • Hold at 5° C. for one hour.
After three days, observations were recorded, and solids were isolated by centrifugation. Wet solids were analyzed by XRPD.

[5] = 7-day indicative stability (XRPD, HPLC purity); assay type: physicochemical; conditions: for change in form after 7 days / purity change after 7 days: ambient
Method: The stability of HCl Pattern 1 was determined using the following procedure. HCl Pattern 1 (30 mg) was weighed into 3×2 mL glass vials. The three vials were then stored under the following conditions for 7-days: • Ambient temperature, humidity and light (open vial); • 40° C./75% RH (open vial); • 80° C. (closed vial).
After 7 days, each sample was analyzed by: XRPD to assess form changes and HPLC to determine the purity of the samples.
After 7 days at each storage condition, the solids were analyzed by XRPD to assess any changes in solid form and by HPLC to determine purity.

[6] = Dynamic Vapor Sorption (DVS); assay type: physicochemical; conditions: for DVS uptake, first sorption cycle / DVS uptake, second sorption cycle: 25° C., to 90% RH
Method: Approximately 10-20 mg of sample was placed into a mesh vapor sorption balance pan and loaded into a DVS Advantage dynamic vapor sorption balance by Surface Measurement Systems. The sample was subjected to a ramping profile from 40-90% relative humidity (RH) at 10% increments, maintaining the sample at each step until a stable weight had been achieved (dm/dt 0.004%, minimum step length 30 minutes, maximum step length 500 minutes) at 25° C. After completion of the sorption cycle, the sample was dried using the same procedure to 0% RH and then a second sorption cycle back to 40% RH. Two cycles were performed. The weight change during the sorption/desorption cycles were plotted, allowing for the hygroscopic nature of the sample to be determined. XRPD analysis was then carried out on any solid retained.

[7] = Hydration study in ethanol:water mixtures; assay type: physicochemical; conditions: 24 hours; for XRPD: solids from slurry
Method: A hydration study was carried out on the material according to the following procedure. […] Ethanol: water solutions (Table 77) were added in 250 μL aliquots to a total volume of 1 mL. The slurries were stirred at 25° C. for 24 hours. After 24 hours the slurries were filtered by centrifugation. The solids were isolated and analyzed by XRPD. The solution was isolated and analyzed by HPLC to determine concentration.

[8] = Thermodynamic solubility in pH 1, 4.5 and 6.8 buffers; assay type: physicochemical; conditions: for Solubility: 25° C., 24 hours
[9] = Disproportionation study in water; assay type: physicochemical
Method: A study disproportionation was carried out using the following procedure. […] The pH was recorded, and the suspension was stirred for ca. 24 hours at 25° C. After 24 hours the pH was recorded, and the slurry was filtered by centrifugation. The solids were isolated and analyzed by XRPD. The solution was isolated and analyzed by HPLC to determine concentration.

[10] = Salt screen storage at 40° C./75% RH, XRPD form; assay type: physicochemical; conditions: after storage at 40° C./75% RH, scale up from ethyl acetate
Method: XRPD analysis was carried out on any isolated solids or gums as described in Example 10 below. The XRPD plate, and the isolated solids, were dried at 40° C. for ca. 24 hours and re-analyzed by XRPD. The XRPD plate was further dried at 40° C./75% RH for ca. 24 hours and XRPD analysis was repeated.
After three days, observations were recorded and solids were isolated by centrifugation. The wet solids were analyzed by XRPD. Solids were dried at 40° C. under vacuum for 72 hours and re-analyzed by XRPD. Solids were dried at 40° C./75% RH for 18 hours and re-analyzed by XRPD.

[11] = pH 6.8 (Phosphate) buffer, 25° C., 24 hours
[12] = residual solids, pH 1 (HCl) buffer, 25° C., 24 hours
[13] = 7 days, 40° C./75% RH (open vial)
[14] = 7 days, ambient temperature, humidity and light (open vial)

CN[C@@H]1C[C@H]2O[C@@](C)([C@@H]1OC)n1c3ccccc3c3c4c(c5c6ccccc6n2c5c31)C(=O)NC4 [staurosporine]
caspase 3/7 activation ([1]; 24 hours): robust caspase 3/7 activation | IC50 ([1]; Homo sapiens, NCI-H526, 72 hours): 6 nM | caspase 3/7 activation [2]: substantial increase

NS(=O)(=O)c1ccc(Nc2ncc3cc4n(c3n2)C2(CCCCC2)C(=O)NN4)cc1 [HCl Pattern 1]
Solubility ([3]; pH 1 (HCl) buffer, 25° C., 24 hours): 2.7 µg/mL | solubility at 24 h ([3]; pH 1 hydrochloride buffer, 25 °C, pH 1, simulated gastric fluid, thermodynamic from solid, pH 1 (HCl) buffer, 24 hours): 3.8 µg/mL | Solubility ([3]; pH 4.5 (Acetate) buffer, 25° C., 24 hours): <LOQ | residual solids by XRPD ([3]; pH 4.5, 25° C., 24 hours): formation of free base | Solubility [3, 11]: <LOQ | residual solids by XRPD ([3]; pH 6.8, 25° C., 24 hours): formation of free base | XRPD [3, 12]: 1 | form after thermal cycling in ethanol [4]: produced HCl Pattern 2 | HPLC Purity [5, 13]: 97.98 % w/w | Observation [5, 13]: White Solid | XRPD [5, 13]: HCl Pattern 1 | HPLC Purity ([5]; 7 days, 80° C. (closed vial)): 96.97 % w/w | Observation ([5]; 7 days, 80° C. (closed vial)): White Solid | XRPD ([5]; 7 days, 80° C. (closed vial)): HCl Pattern 1 | HPLC Purity [5, 14]: 98.02 % w/w | Observation [5, 14]: Yellow Solid | XRPD [5, 14]: HCl Pattern 1 | change in form after 7 days ([5]; 40° C./75% RH, 80° C.): no observable change in form | purity change after 7 days ([5]; 40° C./75% RH, 80° C.): decrease in purity was noted for all samples | form post DVS by XRPD [6]: no observable form change had occurred | hygroscopicity (DVS) [6]: moderately hygroscopic | DVS uptake, first sorption cycle [6]: 5.15% | DVS uptake, second sorption cycle [6]: 5.10%

NS(=O)(=O)c1ccc(Nc2ncc3cc4n(c3n2)C2(CCCCC2)C(=O)NN4)cc1.O=P(O)(O)O [phosphate Pattern 7]
form after stirring in ethanol:water mixtures ([7]; 25° C.): disproportionation of the salt to free base material | Solubility ([7]; Ethanol:Water (63.6:36.4 % v/v), Calc Aw 0.745, 25° C.): 987.8 µg/mL | Solubility ([7]; Ethanol:Water (92.9:7.1 % v/v), Calc Aw 0.507, 25° C.): 1664.8 µg/mL | Solubility ([7]; Ethanol:Water (98.4:1.6 % v/v), Calc Aw 0.257, 25° C.): 1217 µg/mL | XRPD ([7]; Ethanol:Water (63.6:36.4), Aw 0.745, 25° C.): Free Base Pattern 2 | XRPD ([7]; Ethanol:Water (92.9:7.1), Aw 0.507, 25° C.): Free Base Pattern 3 | XRPD ([7]; Ethanol:Water (98.4:1.6), Aw 0.257, 25° C.): Free Base Pattern 3 | XRPD ([8]; 24 h Solubility at 37° C., pH 1.2, residual solids): HCl Pattern 1 | Solubility ([8]; pH 1 (HCl) buffer): 3.8 µg/mL and 2.7 µg/mL | Solubility ([8]; pH 4.5 (Acetate) buffer): 5.8 µg/mL and 5.2 µg/mL | form after stirring in water ([9]; 25° C., ca. 24 hours): indicative of disproportionation | XRPD ([9]; slurry at 25° C. in water, 24 hours): Free Base Pattern 10 | XRPD ([3]; 24 h Solubility at 37° C., pH 4.5, residual solids): Free Base Pattern 1 | XRPD ([3]; 24 h Solubility at 37° C., pH 6.8, residual solids): Free Base Pattern 1 | thermodynamic solubility in three buffer systems ([3]; pH 1, 4.5, 6.8): low aqueous solubility | residual solids by XRPD ([3]; pH 1, 25° C., 24 hours): mixture of HCl Pattern 1 and free base | 24 h Solubility at 37° C., Concentration ([3]; pH 4.5): 5.2 µg/mL | residual solids by XRPD ([3]; pH 4.5, 25° C., 24 hours): dissociation to free base | 24 h Solubility at 37° C., Concentration ([3]; pH 6.8): 4.2 µg/mL | Solubility [3, 11]: 4.2 µg/mL | residual solids by XRPD ([3]; pH 6.8, 25° C., 24 hours): dissociation to free base | XRPD [3, 12]: HCl Pattern 1 | XRPD ([3]; residual solids, pH 4.5 (Acetate) buffer, 25° C., 24 hours): Free base | XRPD ([3]; residual solids, pH 6.8 (Phosphate) buffer, 25° C., 24 hours): Free base | XRPD [10]: Pattern 7* | HPLC Purity ([5]; 7 Day Stability, 40° C./75% RH): 89.63 % area | HPLC Purity ([5]; 7 Day Stability, 80° C.): 98.08 % area | HPLC Purity ([5]; 7 Day Stability, Ambient, Light): 97.90 % area | HPLC Purity [5, 13]: 89.63 % w/w | Observation [5, 13]: Faint Pink Solid | XRPD [5, 13]: Phosphate Pattern 7* | HPLC Purity ([5]; 7 days, 80° C. (closed vial)): 98.08 % w/w | Observation ([5]; 7 days, 80° C. (closed vial)): White Solid | XRPD ([5]; 7 days, 80° C. (closed vial)): Phosphate Pattern 7* | HPLC Purity [5, 14]: 97.87 % w/w | Observation [5, 14]: Faint Yellow Solid | XRPD [5, 14]: Phosphate Pattern 7* | change in form after 7 days ([5]; 40° C./75% RH, 80° C.): no observable change in form | purity change after 7 days ([5]; 40° C./75% RH, 80° C.): significant decrease in purity | form post DVS by XRPD [6]: no observable form change had occurred | hygroscopicity (DVS) [6]: moderately hygroscopic | DVS uptake, first sorption cycle [6]: 4.76% | DVS uptake, second sorption cycle [6]: 5.18% | DVS Moisture Uptake at 80% RH ([6]; first sorption cycle): 4.76 wt. % | XRPD ([6]; post DVS): Phosphate Pattern 7* | DVS Moisture Uptake at 80% RH ([6]; second sorption cycle): 5.18 wt. %
